This is an account of results in patent EP4682145A1, “BENZOHETEROCYCLIC COMPOUND, AND PREPARATION METHOD THEREFOR AND USE THEREOF” (Cascade Pharmaceuticals, Inc., priority 2023, dated 2024).

The assay has as its target T1, human FFAR1 (GPR40) (Homo sapiens, UniProt O14842).
T1 construct: Flag; expressed in transfected cells; host or cells: HEK293T
As to the kind of experiment: NFAT-RE-based reporter gene activity assay (Dual-Glo luciferase) for GPR40 agonistic activity in co-transfected HEK293T cells. The assay is classed as cell-based. The following applies: 4-hour treatment; for Efficacy (%): class symbols. An excerpt:
The pcDNA3.0-flag-FFAR1 (GPR40) plasmid was constructed using conventional molecular cloning methods. The main steps were as follows: The full-length cDNA sequence of human FFAR1 (GPR40) (NM_005303.3) was inserted into the HindIII and XbaI restriction sites of the pcDNA3.0 vector via PCR technology, resulting in the pcDNA3.0-flag-FFAR1 (GPR40) plasmid; pGL4.30 [luc2P NFAT-RE] (# E8481) and pRL-TK (#E2241) plasmids were both purchased from Promega; the plasmids were transformed into DH5α E. coli using the CaCl2 method, further cultured and amplified, and then purified using a plasmid extraction kit (TIANGEN, # DP117) to obtain the corresponding plasmid DNA.
HEK293T cells were seeded in a 96-well plate at a density of 1 × 10^4/well one day prior to plasmid transfection. Cell transfection was performed according to the instructions of the transfection reagent FuGENE® HD (Promega, # E2311). The main steps were as follows: Taking one well as an example, plasmids pcDNA3.0-flag-FFAR1 (GPR40), pGL4.30 [luc2P NFAT-RE], and pRL-TK were added at ratios of 50 ng, 50 ng, and 5 ng, respectively, into 10 µL of Opti-MEM™ I medium (Gibco, #11058021) and mixed thoroughly; then, 0.2 µL of FuGENE® HD was added, mixed thoroughly, and allowed to stand at room temperature for 5 minutes; finally, this 10 µL mixture was added to the cell well containing 100 µL of culture medium. 24 hours after co-transfection, the compounds were serially diluted at half-logarithmic intervals with 1 µM as the highest concentration, resulting in 10 concentration gradients, which were added to the cell culture medium for a 4-hour treatment.
After 4 hours of compound treatment, the cells were assayed according to the instructions of the Dual-Glo® Luciferase Assay System (Promega, # E2940). The main steps were as follows: 50 µL of culture medium was aspirated from each well and discarded, followed by the addition of 50 µL of Dual-Glo® Luciferase Reagent, and the mixture was shaken at room temperature for 10 minutes. Then, 80 µL of the lysate reaction solution was transferred to a white opaque optiPlate-96 well plate, and the luminescence signal of Firefly luciferase (Firefly-Luc) was measured using an MD i3x multifunctional microplate reader. Subsequently, 40 µL of Dual-Glo® Stop & Glo® Reagent was added, and the mixture was shaken at room temperature for 10 minutes. Finally, the luminescence signal of Renilla luciferase (Renilla-Luc) was measured using the MD i3x multifunctional microplate reader. The ratio of Firefly-Luc/Renilla-Luc was used as the compound's agonistic activity toward GPR40, and normalization was performed using the ratio of the solvent DMSO group. A dose-response curve was fitted using a four-parameter model with GraphPad Prism 8.0 software to calculate the EC50 value.
On the technique in general: A reporter such as luciferase makes a cellular process visible.

T1 sequence (O14842 whole entry): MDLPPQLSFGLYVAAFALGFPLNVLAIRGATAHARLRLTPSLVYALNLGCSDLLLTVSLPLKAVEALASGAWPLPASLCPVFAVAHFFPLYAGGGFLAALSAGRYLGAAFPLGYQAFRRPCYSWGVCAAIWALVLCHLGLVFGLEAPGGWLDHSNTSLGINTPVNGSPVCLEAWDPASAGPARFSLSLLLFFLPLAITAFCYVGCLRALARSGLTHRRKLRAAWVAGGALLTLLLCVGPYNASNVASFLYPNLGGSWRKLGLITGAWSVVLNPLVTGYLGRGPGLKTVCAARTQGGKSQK

The term EC50 denotes the concentration needed to bring the measured effect to its halfway point. Turning to `CC(C)(C)n1cc(-c2c(C3CCN(c4cccc(C5CC5)c4)CC3)oc3cc(C(CC(=O)O)C4CC4)ccc23)cn1` (stereo not shown) [Compound 45], the EC50 fell in the range of 0.1 to 0.5 µM and the “Efficacy (%)” value was “†† (150 ≥ Efficacy (%) > 100)”.

Regarding `COc1cccc(N2CCC(c3oc4cc(C(CC(=O)O)C5CC5)ccc4c3-c3cnn(C(C)(C)CF)c3)CC2)c1` (stereo not shown) [Compound 47], the EC50 is 0.1 to 0.5 µM and the “Efficacy (%)” value is given as “†† (150 ≥ Efficacy (%) > 100)”.

On to `COCC(C)(C)n1cc(-c2c(C3CCN(c4cccc(OC)c4)CC3)oc3cc(C(CC(=O)O)C4CC4)ccc23)cn1` (stereo not shown) [Compound 48], for which the EC50 lay in the range of 0.1 to 0.5 µM and the “Efficacy (%)” value is “†† (150 ≥ Efficacy (%) > 100)”.

Regarding `COc1cccc(N2CCC(c3oc4cc([C@@H](CC(=O)O)C5CC5)ccc4c3-c3nnc(C(C)(C)C(F)(F)F)o3)CC2)c1` [Compound 49], the EC50 was not above 0.01 µM and the “Efficacy (%)” value was “†† (150 ≥ Efficacy (%) > 100)”.

With `CNC(=O)C(C)(C)n1cc(-c2c(C3CCN(c4cccc(OC)c4)CC3)oc3cc(C(CC(=O)O)C4CC4)ccc23)cn1` (stereo not shown) [Compound 52], the EC50 lay within 0.1 to 0.5 µM and the “Efficacy (%)” value is recorded as “† (100 ≥ Efficacy (%) > 50)”.

Take `COc1cccc(N2CCC(c3oc4cc(C(CC(=O)O)C5CC5)ccc4c3-c3cnn(C(C)(C)C(=O)N(C)C)c3)CC2)c1` (stereo not shown) [Compound 53]: the EC50 is 0.1 to 0.5 µM and the “Efficacy (%)” value is “†† (150 ≥ Efficacy (%) > 100)”.

On to `COc1cccc(N2CCC(c3oc4cc([C@H](C5CC5)C(F)C(=O)O)ccc4c3-c3cnn(C(C)(C)C)c3)CC2)c1` (stereo partly shown) [Compound 54], for which the EC50 lay within 0.01 to 0.1 µM and the “Efficacy (%)” value is given as “†† (150 ≥ Efficacy (%) > 100)”.

Consider `COc1cccc(N2CCC(c3oc4cc([C@H](C5CC5)C(C)C(=O)O)ccc4c3-c3cnn(C(C)(C)C)c3)CC2)c1` (stereo partly shown) [Compound 55], for which the EC50 was not above 0.01 µM and the “Efficacy (%)” value is on record as “†† (150 ≥ Efficacy (%) > 100)”.

`COc1cccc(N2CCC(c3oc4cc(C(CCO)C5CC5)ccc4c3-c3cnn(C(C)(C)C)c3)CC2)c1` (stereo not shown) [Compound 56]: the EC50 was in the range of 0.1 to 0.5 µM and the “Efficacy (%)” value is listed as “† (100 ≥ Efficacy (%) > 50)”.

Consider `COc1cccc(N2CCC(c3oc4cc(CC(C)C(=O)O)ccc4c3-c3cnn(C(C)(C)C)c3)CC2)c1` (stereo not shown) [Compound 60], for which the EC50 was 0.1 to 0.5 µM and the “Efficacy (%)” value was “†† (150 ≥ Efficacy (%) > 100)”.

In the case of `CCC(Cc1ccc2c(-c3cnn(C(C)(C)C)c3)c(C3CCN(c4cccc(OC)c4)CC3)oc2c1)C(=O)O` (stereo not shown) [Compound 61], the EC50 was in the range of 0.1 to 0.5 µM and the “Efficacy (%)” value was “†† (150 ≥ Efficacy (%) > 100)”.

With `COc1cccc(N2CCC(c3oc4cc(OC(C)C(=O)O)ccc4c3-c3cnn(C(C)(C)C)c3)CC2)c1` (stereo not shown) [Compound 65], the EC50 was in the range of 0.1 to 0.5 µM and the “Efficacy (%)” value is recorded as “†† (150 ≥ Efficacy (%) > 100)”.

For `CCC(CC(=O)O)c1ccc2c(-c3cnn(C(C)(C)C)c3)c(C3CCN(c4cccc(OC)c4)CC3)oc2c1` (stereo not shown) [Compound 66], the EC50 is 0.1 to 0.5 µM and the “Efficacy (%)” value is on record as “†† (150 ≥ Efficacy (%) > 100)”.

With `COc1cccc(N2CCC(c3oc4cc(C(CP(=O)(O)OC)C5CC5)ccc4c3-c3cnn(C(C)(C)C)c3)CC2)c1` (stereo not shown) [Compound 70], the EC50 is more than 0.5 µM and the “Efficacy (%)” value is “†† (150 ≥ Efficacy (%) > 100)”.

Take `COc1cccc(N2CCC(c3oc4cc([C@H](C5CC5)C(C)(C)C(N)=O)ccc4c3-c3cnn(C(C)(C)C)c3)CC2)c1` [Compound 71]: the EC50 lay within 0.1 to 0.5 µM and the “Efficacy (%)” value was “†† (150 ≥ Efficacy (%) > 100)”.

For the molecule `COc1cccc(N2CCC(c3oc4cc(C(CC(=O)O)C5CC5)ccc4c3-c3cnn(C(C)(C)C)c3)CC2)n1` (stereo not shown) [Compound 79], the EC50 was in the range of 0.1 to 0.5 µM and the “Efficacy (%)” value is listed as “†† (150 ≥ Efficacy (%) > 100)”.

On to `COc1cccc(N2CCC(c3oc4cc([C@@H](CC(=O)O)C5CC5)ccc4c3-c3ccc4c(c3)C3(CCCCC3)c3ccccc3-4)CC2)c1` [Compound 81], for which the EC50 lay in the range of 0.1 to 0.5 µM and the “Efficacy (%)” value is given as “† (100 ≥ Efficacy (%) > 50)”.

On to `CNC(=O)c1cc(-c2c(C3CCN(c4cccc(OC)c4)CC3)oc3cc(C(CC(=O)O)C4CC4)ccc23)cn1C` (stereo not shown) [Compound 82], for which the EC50 fell in the range of 0.1 to 0.5 µM and the “Efficacy (%)” value was “† (100 ≥ Efficacy (%) > 50)”.

Turning to `COc1ccnc(N2CCC(c3oc4cc(C(CC(=O)O)C5CC5)ccc4c3-c3cnn(C(C)(C)C)c3)CC2)c1` (stereo not shown) [Compound 83], the EC50 is 0.1 to 0.5 µM and the “Efficacy (%)” value is on record as “† (100 ≥ Efficacy (%) > 50)”.

Turning to `COc1ccc(OC)c(N2CCC(c3oc4cc(C(CC(=O)O)C5CC5)ccc4c3-c3cnn(C(C)(C)C)c3)CC2)c1` (stereo not shown) [Compound 85], the EC50 was 0.1 to 0.5 µM and the “Efficacy (%)” value was “†† (150 ≥ Efficacy (%) > 100)”.

On to `COc1cccc(N2CCC(c3oc4cc(C(CC(=O)O)C5CC5)ccc4c3-c3cnn(C(C)(C)C)c3)CC2)c1F` (stereo not shown) [Compound 86], for which the EC50 fell in the range of 0.01 to 0.1 µM and the “Efficacy (%)” value is reported as “††† (Efficacy (%) > 150)”.

For the molecule `COc1cccc(N2CCC(c3oc4cc([C@@H](CC(=O)O)C5CC5)ccc4c3-c3cnn(C(C)(C)C)c3)CC2)c1F` [Compound 87], the EC50 was in the range of 0.01 to 0.1 µM and the “Efficacy (%)” value is recorded as “†† (150 ≥ Efficacy (%) > 100)”.

With `COc1cccc(N2CCC(c3oc4cc(C(CC(=O)O)C5CC5)ccc4c3-c3cnn(C(C)(C)C)c3)CC2)c1Cl` (stereo not shown) [Compound 88], the EC50 was 0.1 to 0.5 µM and the “Efficacy (%)” value was “†† (150 ≥ Efficacy (%) > 100)”.

`COc1ccc(Cl)c(N2CCC(c3oc4cc(C(CC(=O)O)C5CC5)ccc4c3-c3cnn(C(C)(C)C)c3)CC2)c1` (stereo not shown) [Compound 90]: the EC50 is 0.1 to 0.5 µM and the “Efficacy (%)” value is given as “† (100 ≥ Efficacy (%) > 50)”.

As to `CNC(=O)c1ccc(OC)cc1N1CCC(c2oc3cc(C(CC(=O)O)C4CC4)ccc3c2-c2cnn(C(C)(C)C)c2)CC1` (stereo not shown) [Compound 91], the half-maximal effective concentration (EC50) is 0.1 to 0.5 µM and the “Efficacy (%)” value is “† (100 ≥ Efficacy (%) > 50)”.

Regarding `COc1ccc(C(=O)N(C)CC(C)(C)C)c(N2CCC(c3oc4cc([C@@H](CC(=O)O)C5CC5)ccc4c3-c3cnn(C(C)(C)C)c3)CC2)c1` [Compound 92], the EC50 was in the range of 0.1 to 0.5 µM and the “Efficacy (%)” value is given as “††† (Efficacy (%) > 150)”.

With `COc1ccc(C(=O)N(C)c2ccccc2)c(N2CCC(c3oc4cc([C@@H](CC(=O)O)C5CC5)ccc4c3-c3cnn(C(C)(C)C)c3)CC2)c1` [Compound 93], the half-maximal effective concentration (EC50) was 0.1 to 0.5 µM and the “Efficacy (%)” value was “††† (Efficacy (%) > 150)”.

Consider `COc1ccc(C(=O)Nc2cccc(C)n2)c(N2CCC(c3oc4cc(C(CC(=O)O)C5CC5)ccc4c3-c3cnn(C(C)(C)C)c3)CC2)c1` (stereo not shown) [Compound 94], for which the EC50 was 0.1 to 0.5 µM and the “Efficacy (%)” value is recorded as “† (100 ≥ Efficacy (%) > 50)”.

With `CCCCCCNC(=O)c1ccc(OC)cc1N1CCC(c2oc3cc(C(CC(=O)O)C4CC4)ccc3c2-c2cnn(C(C)(C)C)c2)CC1` (stereo not shown) [Compound 95], the EC50 lay within 0.1 to 0.5 µM and the “Efficacy (%)” value was “†† (150 ≥ Efficacy (%) > 100)”.

For the molecule `CC(C)(C)n1cc(-c2c(C3CCN(c4ccc5c(c4)OC(F)(F)O5)CC3)oc3cc([C@@H](CC(=O)O)C4CC4)ccc23)cn1` [Compound 96], the EC50 lay in the range of 0.1 to 0.5 µM and the “Efficacy (%)” value was “††† (Efficacy (%) > 150)”.

As for `CC(C)(C)n1cc(-c2c(C3CCN(c4ccc5c(c4)OCO5)CC3)oc3cc([C@@H](CC(=O)O)C4CC4)ccc23)cn1` [Compound 97], the EC50 was 0.01 to 0.1 µM and the “Efficacy (%)” value is given as “†† (150 ≥ Efficacy (%) > 100)”.

Consider `COc1ccc(F)c(N2CCC(c3oc4cc(C(CC(=O)O)C5CC5)ccc4c3-c3cnn(-c4ccccc4)c3)CC2)c1` (stereo not shown) [Compound 99], for which the EC50 was 0.1 to 0.5 µM and the “Efficacy (%)” value was “†† (150 ≥ Efficacy (%) > 100)”.

Take `COc1cccc(N2CCC(c3oc4cc(C(CC(=O)O)C5CC5)ccc4c3-c3cnc(C)s3)CC2)c1` (stereo not shown) [Compound 101]: the EC50 lay within 0.1 to 0.5 µM and the “Efficacy (%)” value was “†† (150 ≥ Efficacy (%) > 100)”.

`COc1cccc(N2CCC(c3oc4cc([C@@H](CC(=O)O)C5CC5)ccc4c3-c3cnc(C(C)C)s3)CC2)c1` [Compound 102]: the EC50 is 0.01 to 0.1 µM and the “Efficacy (%)” value was “†† (150 ≥ Efficacy (%) > 100)”.

`COc1cccc(N2CCC(c3oc4cc([C@@H](CC(=O)O)C5CC5)ccc4c3-c3cnc(C(C)(C)C)s3)CC2)c1` [Compound 103]: the EC50 is 0.01 to 0.1 µM and the “Efficacy (%)” value was “†† (150 ≥ Efficacy (%) > 100)”.
